PubChem BioAssay AID1963836 (Molecular Pharmacology Branch, DTP, NCI, 2024)
pIC50: −log10 of the molar value.

Test system: 857933-349-R-J2-PDC complex spheroid viability
Experiment: Anticancer human tumor 857933-349-R-J2-PDC patient-derived colon adenocarcinoma cell line growth inhibition [POLQ]
Conditions: for pIC50: curve of first compound; for viability, T/C: stronger effect = lower value
How it was run: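 Three-cell-type spheroids modelling solid tumor plus stroma served as the readout system; POL inhibitors were tested individually and in combination, concentration ranges set by clinical Cmax where known.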

[1] = second compound 0.0316 µM, first compound 0.0316 µM
[2] = second compound 0.0316 µM, first compound 0.1 µM
[3] = second compound 0.0316 µM, first compound 0.316 µM
[4] = second compound 0.0316 µM, first compound 1 µM
[5] = second compound 0.0316 µM, first compound 3.16 µM
[6] = second compound 0.0316 µM, first compound 10 µM
[7] = second compound 0.1 µM, first compound 0.0316 µM
[8] = second compound 0.1 µM, first compound 0.1 µM
[9] = second compound 0.1 µM, first compound 0.316 µM
[10] = second compound 0.1 µM, first compound 1 µM
[11] = second compound 0.1 µM, first compound 3.16 µM
[12] = second compound 0.1 µM, first compound 10 µM
[13] = second compound 0.316 µM, first compound 0.0316 µM
[14] = second compound 0.316 µM, first compound 0.1 µM
[15] = second compound 0.316 µM, first compound 0.316 µM
[16] = second compound 0.316 µM, first compound 1 µM
[17] = second compound 0.316 µM, first compound 3.16 µM
[18] = second compound 0.316 µM, first compound 10 µM
[19] = second compound 1 µM, first compound 0.0316 µM
[20] = second compound 1 µM, first compound 0.1 µM
[21] = second compound 1 µM, first compound 0.316 µM
[22] = second compound 1 µM, first compound 1 µM
[23] = second compound 1 µM, first compound 3.16 µM
[24] = second compound 1 µM, first compound 10 µM
[25] = second compound 3.16 µM, first compound 0.0316 µM
[26] = second compound 3.16 µM, first compound 0.1 µM
[27] = second compound 3.16 µM, first compound 0.316 µM
[28] = second compound 3.16 µM, first compound 1 µM
[29] = second compound 3.16 µM, first compound 3.16 µM
[30] = second compound 3.16 µM, first compound 10 µM
[31] = second compound 10 µM, first compound 0.0316 µM
[32] = second compound 10 µM, first compound 0.1 µM
[33] = second compound 10 µM, first compound 0.316 µM
[34] = second compound 10 µM, first compound 1 µM
[35] = second compound 10 µM, first compound 3.16 µM
[36] = second compound 10 µM, first compound 10 µM
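Also: spheroids exposed to compounds for seven days before readout.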

`CNCc1ccc(-c2[nH]c3cc(F)cc4c3c2CCNC4=O)cc1` + Nc1ccc(C#CCN(C(=O)Cc2ncc(C(F)(F)F)cc2C(F)(F)F)c2ccc(F)cc2)nn1 was tested, and the pIC50 (second compound 0.0316 µM) was less than 5.00, the pIC50 (second compound 0.1 µM) was less than 5.00 and the pIC50 (second compound 0.316 µM) was less than 5.00. The pIC50 (second compound 1 µM) was less than 5.00, the pIC50 (second compound 3.16 µM) was less than 5.00 and the pIC50 (second compound 10 µM) was less than 5.00. The viability, T/C [1] was 91.7%, the viability, T/C [2] was 101% and the viability, T/C [3] was 92%. The viability, T/C [4] was 97.1%, the viability, T/C [5] was 101% and the viability, T/C [6] was 98.2%. For the same compound, the viability, T/C [7] was 94.5%, the viability, T/C [8] was 78.7% and the viability, T/C [9] was 85.6%. It also gave a viability, T/C [10] of 110%, a viability, T/C [11] of 103% and a viability, T/C [12] of 93.7%. It also gave a viability, T/C [13] of 103%, a viability, T/C [14] of 102% and a viability, T/C [15] of 95.3%. The viability, T/C [16] was 94.9%, the viability, T/C [17] was 107% and the viability, T/C [18] was 90.6%. For the same compound, the viability, T/C [19] was 93.4%, the viability, T/C [20] was 101% and the viability, T/C [21] was 98.9%. It also gave a viability, T/C [22] of 107%, a viability, T/C [23] of 94.3% and a viability, T/C [24] of 98.2%. The viability, T/C [25] was 96.3%, the viability, T/C [26] was 84.9% and the viability, T/C [27] was 92.1%. It also gave a viability, T/C [28] of 104%, a viability, T/C [29] of 97.7% and a viability, T/C [30] of 101%. The viability, T/C [31] was 91.6%, the viability, T/C [32] was 99% and the viability, T/C [33] was 91.2%. For the same compound, the viability, T/C [34] was 93%, the viability, T/C [35] was 100% and the viability, T/C [36] was 92%.
Work on `Cn1ncnc1[C@H]1c2n[nH]c(=O)c3cc(F)cc(c23)N[C@@H]1c1ccc(F)cc1` + Nc1ccc(C#CCN(C(=O)Cc2ncc(C(F)(F)F)cc2C(F)(F)F)c2ccc(F)cc2)nn1 yielded a pIC50 (second compound 0.0316 µM) of less than 7.00, a pIC50 (second compound 0.1 µM) of less than 7.00 and a pIC50 (second compound 0.316 µM) of less than 7.00. For the same compound, the pIC50 (second compound 1 µM) was less than 7.00, the pIC50 (second compound 3.16 µM) was less than 7.00 and the pIC50 (second compound 10 µM) was less than 7.00. It also gave a viability, T/C (second compound 0.0316 µM, first compound 0.000316 µM) of 90.9%, a viability, T/C (second compound 0.0316 µM, first compound 0.001 µM) of 83.9% and a viability, T/C (second compound 0.0316 µM, first compound 0.00316 µM) of 80.7%. The viability, T/C (second compound 0.0316 µM, first compound 0.01 µM) was 90%, the viability, T/C [1] was 95% and the viability, T/C [2] was 85.1%. The viability, T/C (second compound 0.1 µM, first compound 0.000316 µM) was 92.7%, the viability, T/C (second compound 0.1 µM, first compound 0.001 µM) was 92.7% and the viability, T/C (second compound 0.1 µM, first compound 0.00316 µM) was 94%. The viability, T/C (second compound 0.1 µM, first compound 0.01 µM) was 104%, the viability, T/C [7] was 103% and the viability, T/C [8] was 91.5%. It also gave a viability, T/C (second compound 0.316 µM, first compound 0.000316 µM) of 104%, a viability, T/C (second compound 0.316 µM, first compound 0.001 µM) of 101% and a viability, T/C (second compound 0.316 µM, first compound 0.00316 µM) of 97%. For the same compound, the viability, T/C (second compound 0.316 µM, first compound 0.01 µM) was 105%, the viability, T/C [13] was 75% and the viability, T/C [14] was 97.6%. It also gave a viability, T/C (second compound 1 µM, first compound 0.000316 µM) of 105%, a viability, T/C (second compound 1 µM, first compound 0.001 µM) of 85.8% and a viability, T/C (second compound 1 µM, first compound 0.00316 µM) of 86%. The viability, T/C (second compound 1 µM, first compound 0.01 µM) was 97.5%, the viability, T/C [19] was 93.9% and the viability, T/C [20] was 93.6%. It also gave a viability, T/C (second compound 3.16 µM, first compound 0.000316 µM) of 86.2%, a viability, T/C (second compound 3.16 µM, first compound 0.001 µM) of 80.2% and a viability, T/C (second compound 3.16 µM, first compound 0.00316 µM) of 93.5%. The viability, T/C (second compound 3.16 µM, first compound 0.01 µM) was 98%, the viability, T/C [25] was 111% and the viability, T/C [26] was 94.2%. The viability, T/C (second compound 10 µM, first compound 0.000316 µM) was 84.8%, the viability, T/C (second compound 10 µM, first compound 0.001 µM) was 82.1% and the viability, T/C (second compound 10 µM, first compound 0.00316 µM) was 98.3%. For the same compound, the viability, T/C (second compound 10 µM, first compound 0.01 µM) was 92.2%, the viability, T/C [31] was 93.2% and the viability, T/C [32] was 61.7%.
`O=C(c1cc(Cc2n[nH]c(=O)c3ccccc23)ccc1F)N1CCN(C(=O)C2CC2)CC1` + Nc1ccc(C#CCN(C(=O)Cc2ncc(C(F)(F)F)cc2C(F)(F)F)c2ccc(F)cc2)nn1 gave a pIC50 (second compound 0.0316 µM) of less than 5.00, a pIC50 (second compound 0.1 µM) of less than 5.00 and a pIC50 (second compound 0.316 µM) of less than 5.00. It also gave a pIC50 (second compound 1 µM) of less than 5.00, a pIC50 (second compound 3.16 µM) of less than 5.00 and a pIC50 (second compound 10 µM) of less than 5.00. The viability, T/C [1] was 84.3%, the viability, T/C [2] was 109% and the viability, T/C [3] was 94.2%. It also gave a viability, T/C [4] of 81.7%, a viability, T/C [5] of 97.1% and a viability, T/C [6] of 88.1%. For the same compound, the viability, T/C [7] was 102%, the viability, T/C [8] was 104% and the viability, T/C [9] was 105%. For the same compound, the viability, T/C [10] was 84.9%, the viability, T/C [11] was 99.1% and the viability, T/C [12] was 106%. The viability, T/C [13] was 101%, the viability, T/C [14] was 81.2% and the viability, T/C [15] was 83.8%. The viability, T/C [16] was 94.7%, the viability, T/C [17] was 98.2% and the viability, T/C [18] was 83.4%. For the same compound, the viability, T/C [19] was 104%, the viability, T/C [20] was 98.4% and the viability, T/C [21] was 90.5%. The viability, T/C [22] was 94.8%, the viability, T/C [23] was 82.6% and the viability, T/C [24] was 87.5%. For the same compound, the viability, T/C [25] was 90.7%, the viability, T/C [26] was 106% and the viability, T/C [27] was 92.9%. The viability, T/C [28] was 95%, the viability, T/C [29] was 101% and the viability, T/C [30] was 90.9%. For the same compound, the viability, T/C [31] was 88.1%, the viability, T/C [32] was 93.9% and the viability, T/C [33] was 95.5%. For the same compound, the viability, T/C [34] was 89%, the viability, T/C [35] was 74% and the viability, T/C [36] was 83.9%.
